For orientation: IC50 means the midpoint of a concentration-inhibition curve. Low readings indicate greater potency, high ones weaker potency.

Like-named read-outs stand apart in the source and are kept apart here.

Results on two molecules are retold here after patent US20240058343A1, “TREATMENT OF URTICARIA USING JAK INHIBITORS” (Incyte Corporation, priority 2022, published 2024).

The target in experiment [1] is human JAK1 (a.a. 837-1142) (Homo sapiens, UniProt P23458). In words: In vitro JAK kinase assay (HTRF), JAK1. To be noted: 1 mM ATP. Type of experiment: biochemical.
Experimental: (§1) The catalytic activity of JAK1, JAK2 or JAK3 was assayed by measuring the phosphorylation of a biotinylated peptide. The phosphorylated peptide was detected by homogenous time resolved fluorescence (HTRF). IC5os of compounds are measured for each kinase in the 40 microL reactions that contain the enzyme, ATP and 500 nM peptide in 50 mM Tris (pH 7.8) buffer with 100 mM NaCl, 5 mM DTT, and 0.1 mg/mL (0.01%) BSA. […] Reactions are carried out at room temperature for 1 hour and then stopped with 20 μL 45 mM EDTA, 300 nM SA-APC, 6 nM Eu-Py20 in assay buffer (Perkin Elmer, Boston, MA). Binding to the Europium labeled antibody takes place for 40 minutes and HTRF signal was measured on a Fusion plate reader (Perkin Elmer, Boston, MA).
The target of the next experiment is JAK2 (a.a. 828-1132) (Homo sapiens (Human), UniProt O60674). In words: In vitro JAK kinase assay (HTRF), JAK2, for JAK2/JAK1 ratio. The conditions noted are these: IC50 ratio at 1 mM ATP. Type of experiment: biochemical. A general note: Time-resolved FRET reads energy transfer from a long-lived donor to a nearby acceptor.
For the next experiment, the system named is CSU skin. Nature of the experiment: Ex vivo culture of CSU lesional skin biopsies, RNA-seq gene expression. In kind it is cell-based, human. How it is done: Full-thickness cutaneous skin biopsies were obtained from active disease, untreated, urticaria patients. A single 4mm-punch biopsy was obtained from the same lesion for each patient and longitudinally divided into two pieces. Biopsies were cultured for 24 hours in KBM media+CaCl2, with or without compound (i.e., Compound 1) or DMSO (control). After 24 hours, tissue RNA was isolated for subsequent analysis. RNA extracts were quantified with the Qubit fluorometer (Invitrogen) and quality assessed by TapeStation automated electrophoresis (Agilent Technologies). Total RNA (250 ng) treated with amplification-grade DNase I (Invitrogen) were enriched for non-ribosomal RNA using the NEBNext rRNA Depletion Kit v2 (New England BioLabs). Library preparation was performed with the NEBNext Ultra II Directional RNA Library Prep Kit for Illumina (New England BioLabs) following the manufactures protocol for library preparation of intact or partially degraded RNA (section 2). For comparability, the same protocol was used for all samples. RNA-seq libraries were pooled and paired-end sequencing was performed on the NextSeq 2000 (Illumina) with an average sequencing depth of 200 M reads. FASTQ files were processed with Nextflow RNASeq pipeline (v. 22.10.1). […] The effects of JAK1 inhibition with Compound 1 on DEGs identified in the prior analysis were further evaluated. […]

The subject of a further experiment is IgE. The conditions noted are these: CSU patients, after 12 weeks, with second-generation H1 antihistamine, cited from earlier work.

Sequence of JAK2 (a.a. 828-1132) (O60674 828-1132): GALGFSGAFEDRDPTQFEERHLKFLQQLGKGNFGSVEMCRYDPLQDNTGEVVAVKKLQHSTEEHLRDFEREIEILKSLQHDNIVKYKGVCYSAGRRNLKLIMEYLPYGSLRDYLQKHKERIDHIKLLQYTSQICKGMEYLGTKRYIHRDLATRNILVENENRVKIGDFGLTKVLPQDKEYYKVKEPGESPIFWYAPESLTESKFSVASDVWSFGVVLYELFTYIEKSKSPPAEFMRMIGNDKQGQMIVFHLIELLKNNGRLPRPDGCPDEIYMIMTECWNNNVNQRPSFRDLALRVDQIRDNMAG
Experimental for JAK2 (a.a. 828-1132): as §1

As to `N#CCC1(n2cc(-c3ncnc4[nH]ccc34)cn2)CN(C2CCN(C(=O)c3ccnc(C(F)(F)F)c3F)CC2)C1` [compound 1, {1-{1-[3-Fluoro-2-(trifluoromethyl)isonico-tinoyl]piperidin-4-yl}-3-[4-(7H-pyrrolo[2,3-d]pyrimidin-4-yl)-1H-pyrazol-1-yl]azetidin-3-yl}acetonitrile], the IC50 in experiment [1] was < 10 nM. On JAK2 (a.a. 828-1132), the JAK2/JAK1 is reported as >10. For the same molecule, the PTX3 expression result in the experiment on CSU skin (CSU skin, 24 hour ex vivo treatment, FIG. 1) is “dramatically reduced”. In addition, in the experiment on CSU skin (cultured CSU skin, 24 hours, vs DMSO control), the “CCL2, S100A8, SELE and PTX3 expression” value is recorded as “altered expression”.

With “Omalizumab: an anti-IgE monoclonal antibody (administered subcutaneously)”, the “patients achieving a complete response” value in the experiment on IgE is listed as “approximately 35%”; with IgE (listed as omalizumab), ~35%.
